From BindingDB's records for doi:10.1021/jm00174a016 (University of Paris, 1991)
Where a SMILES comes first, the peptide text is derived from it. [ ]: non-standard residue; d: D form. The star is where a group is joined. sY = N[C@@H](Cc1ccc(OS(=O)(=O)O)cc1)C(=O)O; Nle = CCCC[C@H](N)C(=O)O; Orn = NCCC[C@H](N)C(=O)O; Cbz = O=C(OCc1ccccc1)*; Boc = CC(C)(C)OC(=O)*

Experiments:
[1] = molecular target: Gastrin/cholecystokinin type B receptor (Cavia porcellus); experiment: Apparent affinity to inhibit binding of [3H]pCCK-8 to Cholecystokinin type B receptor of guinea pig brain membranes
[2] = molecular target: Gastrin/cholecystokinin type B receptor (Cavia porcellus); experiment: as above; remark: listed apart in the source

| Ki [1] | SMILES | Ki [2] |
| --- | --- | --- |
| 4.2 µM | CC(C)(C)OC(=O)N[C@@H](Cc1c[nH]c2ccccc12)C(=O)N[C@@H](CCCNC(=O)OCc1ccccc1)C(=O)N[C@@H](CC(=O)O)C(N)=O (Boc-Trp-[Orn](Cbz)-Asp-NH2) |  |
| 0.58 µM | CC(C)(C)OC(=O)N[C@@H](Cc1c[nH]c2ccccc12)C(=O)N[C@@H](CCCNC(=O)OCc1ccccc1)C(=O)N[C@@H](CC(=O)O)C(=O)N[C@@H](Cc1ccccc1)C(N)=O (Boc-W[Orn](Cbz)DF-NH2) |  |
|  | CC(C)(C)OC(=O)N[C@@H](Cc1c[nH]c2ccccc12)C(=O)N[C@@H](CCCN)C(=O)N[C@@H](CC(=O)O)C(=O)N[C@@H](Cc1ccccc1)C(N)=O (Boc-W[Orn]DF-NH2) | 1.4 µM |
| 0.054 µM | CCCC[C@H](NC(=O)[C@H](Cc1ccc(OS(=O)(=O)O)cc1)NC(=O)OC(C)(C)C)C(=O)NCC(=O)N[C@@H](Cc1c[nH]c2ccccc12)C(=O)N[C@@H](CCCNC(=O)OCc1ccccc1)C(=O)N[C@@H](CC(=O)O)C(N)=O (Boc-[sY][Nle]GW[Orn](Cbz)D-NH2) |  |
|  | CC(C)(C)OC(=O)NCCC[C@H](NC(=O)[C@H](Cc1c[nH]c2ccccc12)NC(=O)OC(C)(C)C)C(=O)N[C@@H](CC(=O)O)C(N)=O [3-{5-tert-Butoxycarbonylamino-2-[2-tert-butoxycarbonylamino-3-(1H-indol-3-yl)-propionylamino]-pentanoylamino}-succinamic acid] (Boc-Trp-[Orn](Boc)-Asp-NH2) | 4.3 µM |
